Like-named read-outs stand apart in the source and are kept apart here.
Assays:
MYXV [1] = experiment: Lysis plaque analysis in RK13 infected with MYXV; assay type: cell-based, Myxoma virus; conditions: 6d PI
Description: Lysis plaque analysis was carried out in RK13 infected with MYXV 6d PI. Lysis plaques area and number of lysis plaques were assessed directly on microscope pictures (FIG. 4).

MYXV [2] = experiment: MYXV-GFP infection rate in RK13 cells (high content microscopy); conditions: for Inhibition of MYXV infection rate (in words): RK13 cells; for IC50: MYXV in RK13 cells
Description: RK13 (rabbit epitelial kidney) cells were used for MYXV infection assay.
Cells were grown in 200 μL Dulbecco's Modified Eagle's medium (DMEM) without phenol red (Sigma-Aldrich), 10% SVF, Pen-strep, 1× sodium pyruvate, 1× Glutamax.
RK13 cells at MOI 0.5 48 h post-infection (PI) are fixed with Formalin 10 min at room temperature. Wash with 200 μL PBS and 100 μL PBS/Hoechst 33342 (1/1000) per well. 96 well plates are kept at 4° C. in the dark until data acquisition. Image acquisition and analysis for high content quantification is performed on a Thermo Cellomics Arrayscan VTI microscope using a modified compartmental analysis algorithm.
RK13 cells for the toxicity study and RK13 cells at MOI 0.01 6 days PI are fixed and image acquisition and analysis are performed as previously described.
On 48 h and 6d post-infection, data acquisition was done by high content microscopy to calculate infection level according to compound concentration.

[3] = read-out: IC50 (48 h PI), MOI 0.5, 48 h post-infection
[4] = read-out: IC50 (6 d PI), MOI 0.01, 6 days post-infection

Fc1c(F)c(F)c(-c2c3nc(c4ccc([nH]4)c(-c4c(F)c(F)c(F)c(F)c4F)c4ccc([nH]4)c(-c4c(F)c(F)c(F)c(F)c4F)c4ccc2[nH]4)C=C3)c(F)c1F [TPFCor, 5,10,15-Tris(pentafluorophenyl)corrole]
Area in cm^2 of lysis plaques (MYXV [1]; concentration 0.37 μM): 6 cm^2 | Number of lysis plaques (MYXV [1]; concentration 0.37 μM): 6.7 | Number of lysis plaques (MYXV [1]; concentration 0.75 μM): 6 | Number of lysis plaques (MYXV [1]; concentration 1.5 μM): 3.3 | Number of lysis plaques (MYXV [1]; concentration 3.1 μM): 4 | CC50 (RK13 cells): 6680 nM | Inhibition of MYXV infection rate (in words) (MYXV [2]): better in vitro anti-MYXV effect than FNO2Cor | IC50 (MYXV [2]; [3]): 270 nM | IC50 (MYXV [2]; [4]): 120 nM

O=[N+]([O-])c1ccc(F)c(-c2c3nc(c4ccc([nH]4)c(-c4cc([N+](=O)[O-])ccc4F)c4ccc([nH]4)c(-c4cc([N+](=O)[O-])ccc4F)c4ccc2[nH]4)C=C3)c1 [FNO2Cor, 5,10,15-Tris(2-fluoro-5-nitrophenyl)corrole]
Area in cm^2 of lysis plaques (MYXV [1]; concentration 0.37 μM): 8 cm^2 | Number of lysis plaques (MYXV [1]; concentration 0.37 μM): 5 | Area in cm^2 of lysis plaques (MYXV [1]; concentration 0.75 μM): 3.4 cm^2 | Number of lysis plaques (MYXV [1]; concentration 0.75 μM): 6 | Number of lysis plaques (MYXV [1]; concentration 1.5 μM): 1.3 | Number of lysis plaques (MYXV [1]; concentration 3.1 μM): 0 | CC50 (RK13 cells): 3740 nM | IC50 (MYXV [2]; [3]): 1330 nM | IC50 (MYXV [2]; [4]): 500 nM

O=[N+]([O-])c1ccc(-c2c3nc(c4ccc([nH]4)c(-c4ccc([N+](=O)[O-])cc4)c4ccc([nH]4)c(-c4ccc([N+](=O)[O-])cc4)c4ccc2[nH]4)C=C3)cc1 [TpNO2Cor, 5,10,15-Tris(4-nitrophenyl)corrole]
Area in cm^2 of lysis plaques (MYXV [1]; concentration 0.37 μM): 9 cm^2 | Number of lysis plaques (MYXV [1]; concentration 0.37 μM): 4 | Area in cm^2 of lysis plaques (MYXV [1]; concentration 0.75 μM): 3.4 cm^2 | Number of lysis plaques (MYXV [1]; concentration 0.75 μM): 6.7 | Number of lysis plaques (MYXV [1]; concentration 1.5 μM): 2.7 | Number of lysis plaques (MYXV [1]; concentration 3.1 μM): 0 | CC50 (RK13 cells): 4360 nM | Inhibition of MYXV infection rate (in words) (MYXV [2]): better in vitro anti-MYXV effect than FNO2Cor | IC50 (MYXV [2]; [3]): 430 nM | IC50 (MYXV [2]; [4]): 200 nM

— patent publication US11529332B2 (priority 2017, dated 2022)
